The text below walks through data of patent US10195185B2, “3-(1H-imidazo[4,5-C]pyridin-2-yl)-1H-pyrazolo[4,3-B]pyridines and therapeutic uses thereof” (Samumed, LLC, priority 2015, dated 2019).

Format in all cases: cell-based
Assay [1] has as its system Wnt activity (Wnt-responsive human Sp5 promoter, TCF/LEF binding sites) in SW480 colon carcinoma cells. As to the kind of experiment: Wnt activity screening assay: Sp5-Luc luciferase reporter gene in SW480 cells. Conditions: for EC50: 10-point dose-response from 10 μM, incubated overnight; for inhibition at 10 µM: given for EC50 of >10 μM, read-out: percent inhibition at 10 μM. Summed up: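 SW480 cells stably transduced with an Sp5 promoter (eight TCF/LEF sites)–firefly luciferase lentiviral reporter, plated at 4,000 cells/well in 1% FBS medium with compounds (10-point 1:3 series from 10 μM, 0.1% DMSO) overnight at 37 °C. BrightGlo luminescence normalised to DMSO; EC50 by four-parameter fit, else % inhibition at 10 μM.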

Assay [2] deals with SW480 colon cancer cells. The assay is described as follows: Cell viability assay (CellTiter-Blue), four days. Conditions: Homo sapiens, 96 h; for EC50: CellTiter-Blue cell viability; for inhibition at 10 µM: read-out: percent inhibition at 10 μM (given for EC50 of >10 μM). Put shortly: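 SW480 colon cancer cells (~2×10^3/well) exposed to 8-point 1:3 dilutions from 10 μM to 0.0045 μM for four days at 37 °C/5% CO2. Viability read by resazurin (CellTiter-Blue) fluorescence after ~3 h, Ex 560/Em 590 nm. EC50 from non-linear regression; percent inhibition at 10 μM given when EC50 >10 μM.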

In assay [3] the test system is primary human mesenchymal stem cells (hMSCs). The assay is described as follows: Induction of chondrogenesis in hMSCs (nodule area, Rhodamine B / Nile Red). As to conditions: TGF-β3 as positive control; for Emax: read-out: Max. Activity as % TGF-β3 activity; for EC50: concentration required to induce 50% levels of chondrogenesis, read-out: Conc (nM) of 50% TGF-β3 activity. As to the method:
Representative compounds were screened using primary human mesenchymal stem cells (hMSCs) to determine their ability to induce chondrogenesis (process by which cartilage is developed).
Primary human mesenchymal stem cells (hMSCs) were purchased from Lonza (Walkersville, Md.) and expanded in Mesenchymal Stem Cell Growth Media (Lonza). Cells between passage 3 and 6 were used for the experiments.
Each compound was dissolved in DMSO as a 10 mM stock and used to prepare compound source plates. For the 96 well assay, serial dilution (1:3, 6-point dose-response curves from 2700 nM to 10 nM) and compound transfer was performed using the ECHO 550 (Labcyte, Sunnyvale, Calif.) into 96-well clear bottom assay plates (Greiner Bio-One) with appropriate DMSO backfill for a final DMSO concentration of 0.03%. hMSCs were plated at 20,000 cells/well in 250 μL/well Incomplete Chondrogenic Induction Medium (Lonza; DMEM, dexamethasone, ascorbate, insulin-transferrin-selenium [ITS supplement], gentamycin-amphotericin [GA-1000], sodium pyruvate, proline and L-glutamine). TGF-β3 (10 ng/mL) was used as a positive control for differentiation while negative control wells were treated with 75 nL DMSO for normalization and calculating EC50 values. For the 384 well assay, serial dilution (1:3, 8-point dose-response curves from 5000 nM to 2.2 nM) and compound transfer was performed using the ECHO 550 (Labcyte, Sunnyvale, Calif.) into 384-well clear bottom assay plates (Greiner Bio-One) with appropriate DMSO backfill for a final DMSO concentration of 0.03%. hMSCs were plated at 8,000 cells/well in 80 μL/well Incomplete Chondrogenic Induction Medium (Lonza; DMEM, dexamethasone, ascorbate, insulin-transferrin-selenium [ITS supplement], gentamycin-amphotericin [GA-1000], sodium pyruvate, proline and L-glutamine). TGF-β3 (10 ng/mL) was used as a positive control for differentiation while negative control wells were treated with 25 nL DMSO for normalization and calculating EC50 values. Cells were incubated at 37° C. and 5% CO2 for 6 days. To image chondrogenic nodules, the cells were fixed using 4% formaldehyde (Electron Microscopy Sciences), and stained with 2 μg/mL Rhodamine B (Sigma-Aldrich) and 20 μM Nile Red (Sigma-Aldrich) [Johnson K., et. al, A Stem Cell-Based Approach to Cartilage Repair, Science, (2012), 336(6082), 717-721]. The nodules imaged (25 images per well for 96 well plates and 9 images per well for 384 well plates at 10× magnification) by excitation at 531 nm and emission at 625 nm and quantified using the CellInsight CX5 (Thermo Scientific). Area of nodules in each well was normalized to the average of 3 DMSO treated wells on the same plate using Excel (Microsoft Inc.). The normalized averages (fold change over DMSO) of 2 or 3 replicate wells for each compound concentration were calculated. Due to solubility limitations of some of the compounds, curve fitting was incomplete leading to inaccurate EC50 determinations.
Using TGF-β3 as a positive control, the concentration of representative compounds required to induce 50% levels of chondrogenesis is reported. In addition, the maximum activity of each compound and the respective dose that each compound reached maximum chondrogenesis activity is reported.

Bounds are passed on as bounds.

Regarding `CC(C)Nc1cncc(-c2ccc3[nH]nc(-c4nc5c(-c6cccnc6)nccc5[nH]4)c3n2)c1` [Compound 96, N-Isopropyl-5-(3-(4-(pyridin-3-yl)-1H-imidazo[4,5-c]pyridin-2-yl)-1H-pyrazolo[4,3-b]pyridin-5-yl)pyridin-3-amine], the EC50 in assay [1] is 0.994 µM; in assay [2], 1.98 µM; in assay [3], 10 nM. For the same molecule, in assay [3], the Emax is 54%.
As for `Cc1ccncc1-c1ccc2[nH]nc(-c3nc4c(-c5ccncc5)nccc4[nH]3)c2n1` [Compound 117, 5-(4-Methylpyridin-3-yl)-3-(4-(pyridin-4-yl)-1H-imidazo[4,5-c]pyridin-2-yl)-1H-pyrazolo[4,3-b]pyridine], in assay [1], the EC50 was more than 10 µM and the inhibition at 10 µM was 28%. In assay [2], the inhibition at 10 µM stood at 19.6% and the EC50 is more than 10 µM. Also, in assay [3], the Emax came to 53% and the EC50 was found to be 2700 nM.
Turning to `O=C(Cc1ccccc1)Nc1cncc(-c2ccc3[nH]nc(-c4nc5c(-c6ccncc6)nccc5[nH]4)c3n2)c1` [Compound 122, 2-phenyl-N-(5-(3-(4-(pyridin-4-yl)-1H-imidazo[4,5-c]pyridin-2-yl)-1H-pyrazolo[4,3-b]pyridin-5-yl)pyridin-3-yl)acetamide], the EC50 in assay [1] is more than 10 µM; in assay [2], more than 10 µM; in assay [3], 30 nM. In addition, the inhibition at 10 µM in assay [1] is 1%; in assay [2], 3.2%. Also, the Emax in assay [3] is 74%.
Consider `CCCC(=O)Nc1cncc(-c2ccc3[nH]nc(-c4nc5c(-c6ccncc6)nccc5[nH]4)c3n2)c1` [Compound 129, N-(5-(3-(4-(Pyridin-4-yl)-1H-imidazo[4,5-c]pyridin-2-yl)-1H-pyrazolo[4,3-b]pyridin-5-yl)pyridin-3-yl)butyramide], for which, in assay [1], the EC50 is more than 10 µM and the inhibition at 10 µM was 2.2%. In addition, in assay [2], the inhibition at 10 µM worked out at 0% and the EC50 is more than 10 µM. In assay [3], the Emax turned out to be 70% and the EC50 is 300 nM.
For the molecule `CCNCc1cncc(-c2ccc3[nH]nc(-c4nc5c(-c6ccccn6)nccc5[nH]4)c3n2)c1` [Compound 146, N-((5-(3-(4-(Pyridin-2-yl)-1H-imidazo[4,5-c]pyridin-2-yl)-1H-pyrazolo[4,3-b]pyridin-5-yl)pyridin-3-yl)methyl)ethanamine], the EC50 in assay [1] is more than 10 µM; in assay [2], 4.76 µM. Also, the inhibition at 10 µM in assay [1] worked out at 35.5%. The Emax in assay [3] was determined as 28%.
Turning to `CCCCC(=O)Nc1cncc(-c2ccc3[nH]nc(-c4nc5c(-c6ccccn6)nccc5[nH]4)c3n2)c1` [Compound 159, N-(5-(3-(4-(Pyridin-2-yl)-1H-imidazo[4,5-c]pyridin-2-yl)-1H-pyrazolo[4,3-b]pyridin-5-yl)pyridin-3-yl)pentanamide], in assay [1], the EC50 was more than 10 µM and the inhibition at 10 µM worked out at 1.2%. Besides, in assay [2], the inhibition at 10 µM was 5.7% and the EC50 is more than 10 µM. In assay [3], the Emax is 113% and the EC50 worked out at 10 nM.
For the molecule `CCC(=O)Nc1cncc(-c2ccc3[nH]nc(-c4nc5c(N6CCCCC6)nccc5[nH]4)c3n2)c1` [Compound 169, N-(5-(3-(4-(Piperidin-1-yl)-1H-imidazo[4,5-c]pyridin-2-yl)-1H-pyrazolo [4,3-b]pyridin-5-yl)pyridin-3-yl)propionamide], the results for the EC50 in assay [1], in assay [2] and in assay [3] were 4.2 µM, 3.8 µM and 30 nM, respectively. Besides, the Emax in assay [3] came to 69%.
Take `CN(C)c1cncc(-c2ccc3[nH]nc(-c4nc5c(N6CCCCC6)nccc5[nH]4)c3n2)c1` [Compound 175, N,N-Dimethyl-5-(3-(4-(piperidin-1-yl)-1H-imidazo[4,5-c]pyridin-2-yl)-1H-pyrazolo [4,3-b]pyridin-5-yl)pyridin-3-amine]: the EC50 came to 3.89 µM in assay [1] and 1.99 µM in assay [2]. In addition, the Emax in assay [3] is 48%.
In the case of `CN(C)Cc1cncc(-c2ccc3[nH]nc(-c4nc5c(N6CCCCC6)nccc5[nH]4)c3n2)c1` [Compound 181, N,N-Dimethyl-1-(5-(3-(4-(piperidin-1-yl)-1H-imidazo[4,5-c]pyridin-2-yl)-1H-pyrazolo [4,3-b]pyridin-5-yl)pyridin-3-yl)methanamine], the EC50 in assay [1] is more than 10 µM; in assay [2], 4.69 µM. For the same molecule, the inhibition at 10 µM in assay [1] worked out at 8.4%. Moreover, in assay [3], the Emax was 43%.
For `Cc1cn(-c2nccc3[nH]c(-c4n[nH]c5ccc(-c6cncc(NC(=O)CC(C)C)c6)nc45)nc23)cn1` [Compound 198], the EC50 in assay [1] came out at 3.98 µM; in assay [2], 8.48 µM; in assay [3] it was 30 nM. For the same molecule, the Emax in assay [3] came out at 69%.
Take `Cc1cn(-c2nccc3[nH]c(-c4n[nH]c5ccc(-c6cncc(NC(=O)C(C)(C)C)c6)nc45)nc23)cn1` [Compound 204, N-(5-(3-(4-(4-Methyl-1H-imidazol-1-yl)-1H-imidazo[4,5-c]pyridin-2-yl)-1H-pyrazolo[4,3-b]pyridin-5-yl)pyridin-3-yl)pivalamide]: the EC50 in assay [1] is more than 10 µM; in assay [2], more than 10 µM; in assay [3], 30 nM. Besides, the inhibition at 10 µM in assay [1] is 21%; in assay [2] it was 0%. The Emax in assay [3] turned out to be 70%.
With `Cc1cn(-c2nccc3[nH]c(-c4n[nH]c5ccc(-c6cncc(CN7CCCC7)c6)nc45)nc23)cn1` [Compound 210, 3-(4-(4-Methyl-1H-imidazol-1-yl)-1H-imidazo[4,5-c]pyridin-2-yl)-5-(5-(pyrrolidin-1-ylmethyl)pyridin-3-yl)-1H-pyrazolo [4,3-b]pyridine], in assay [1], the EC50 was more than 10 µM and the inhibition at 10 µM came to 5.5%. Besides, in assay [2], the inhibition at 10 µM is 7.2% and the EC50 is more than 10 µM. In addition, the Emax in assay [3] is 50%.
Turning to `CN1CCN(c2nccc3[nH]c(-c4n[nH]c5ccc(-c6cncc(N)c6)nc45)nc23)CC1` [Compound 227, 5-(3-(4-(4-Methylpiperazin-1-yl)-1H-imidazo[4,5-c]pyridin-2-yl)-1H-pyrazolo[4,3-b]pyridin-5-yl)pyridin-3-amine], the values for the EC50 in assay [1], in assay [2] and in assay [3] were more than 10 µM, more than 10 µM and 100 nM, respectively. Also, the inhibition at 10 µM came out at 15.3% in assay [1] and 0% in assay [2]. Further, the Emax in assay [3] is 135%.
For `CC(C)C(=O)Nc1cncc(-c2ccc3[nH]nc(-c4nc5c(N6CCN(C)CC6)nccc5[nH]4)c3n2)c1` [Compound 233, N-(5-(3-(4-(4-Methylpiperazin-1-yl)-1H-imidazo[4,5-c]pyridin-2-yl)-1H-pyrazolo[4,3-b]pyridin-5-yl)pyridin-3-yl)isobutyramide], the EC50 in assay [1] was more than 10 µM; in assay [2], more than 10 µM; in assay [3] it was 900 nM. Moreover, the inhibition at 10 µM turned out to be 6.4% in assay [1] and 1.6% in assay [2]. In assay [3], the Emax amounted to 64%.
